Literature values in patent US11497741B2, “Granules containing diamine derivative” (DAIICHI SANKYO COMPANY, LIMITED, priority 2018, dated 2022).

solubility (water solubility) (neutral aqueous solution (neutral buffer solution)): reduced solubility | solubility (strongly acidic aqueous solution): good solubility
Structure (SMILES): CN1CCc2nc(C(=O)N[C@@H]3C[C@@H](C(=O)N(C)C)CC[C@@H]3NC(=O)C(=O)Nc3ccc(Cl)cn3)sc2C1 [Edoxaban, N^1-(5-Chloropyridin-2-yl)-N^2-((1S,2R,4S)-4-[(dimethylamino)carbonyl]-2-{[(5-methyl-4,5,6,7-tetrahydrothiazolo[5,4-c]pyridin-2-yl)carbonyl]amino}cyclohexyl)ethanediamide]
